Three molecules from patent US6693132B2, “Methods for using alkanoyloxymethyl esters” (Beacon Laboratories, Inc., priority 2000, dated 2004) can be followed below.

SMILES strings stand for the structures. Where only a bound is given, the exact number is not on record here.

Assay [1] concerns PC-3 prostate cancer cells. The experiment in a line: EDR anti-proliferation assay (3H-thymidine incorporation, soft agar) against PC-3 prostate cancer cells. Type of assay: cell-based. To be noted: Homo sapiens; PC-3 cells in soft agar, five days incubation, 3H-TdR incorporation.
Source text: The PC-3 cell line was maintained in RPMI supplemented with 10% fetal calf serum and antibiotics. […] Cells were suspended in 0.12% soft agar in complete medium and plated (2,000 cells per well, as determined by preliminary experiments) in different drug concentrations onto a 0.4% agarose underlayer in 24-well plates. Plating cells on agarose underlayers supports the proliferation only of the transformed cells, ensuring that the growth signal stems from the malignant component of the tumor.
All compounds were dissolved in DMSO to 200× stock solutions. Stock solutions were diluted to 20× working solutions using the tissue culture medium, serially diluted and added to the 24-well plates. […] No significant changes in pH of the culture medium were observed under the above conditions. Diluent control wells contained PC3 cells treated with DMSO, at the dilutions used for appropriate drug treatment. All experimental points were represented by two separate wells (duplicates). Positive controls were determined using at least two wells treated with an extremely high dose of cisplatin, an anti-cancer agent. Four wells containing tumor cells that were not treated with drugs served as negative controls in each experiment.
Cells were incubated with drugs under standard culture conditions for five days. Cultures were pulsed with tritiated thymidine (^3H-TdR, New Life Science Products, Boston, Mass.) at 5 μCi per well for the last 48 hours of the culture period. Cell culture plates were then heated to 90° C. to liquefy the agarose, and cells were harvested onto glass fiber filters, which were then placed into counting vials containing liquid scintillation fluid. The radioactivity trapped on the filters was counted with a Beckman scintillation counter. The fraction of surviving cells was determined by comparing ^3H-TdR incorporation in treated (experimental points) and untreated (negative control) wells. […] IC50 values were determined using the approximated sigmoidal curves and expressed as μM.
The target in assay [2] is histone deacetylase isolated from rat liver. The experiment in a line: Histone deacetylase inhibition assay with fluorescent substrate MAL, HPLC determination. The assay is classed as biochemical. To be noted: 37° C. 90 minutes, IC50 from five dilutions, read-out: HDAC.
Procedure: The inhibition of histone deacetylase was determined according to methods generally described by Hoffmann et al., Nucleic Acids Res. 27:2057-8 (1999). The histone deacetylase was isolated from rat liver as previously described by M. Tung. The compounds tested were initially dissolved in either ethanol or in DMSO to provide working stock solutions.
The assay was performed in a final volume of 120 μL total, consisting of 100 μL of 15 μM tris-HCl buffer (pH 7.9) also containing 0.25 μM EDTA, 10 μM NaCl, 10% glycerol, 10 μM mercaptoethanol and the enzyme. The assay was initiated upon the addition of 10 ml of one of the compounds being tested, followed by the addition of the fluorescence-labeled lysine substrate to each assay tube in an ice bath for 15 minutes. The tubes were transferred to a water bath at 37° C. for an additional 90 minutes.
The fluorescent substrate described by Hoffmann was modified to increase the precision and accuracy by the addition of an internal standard for the HPLC determination. The synthetic substrate, MAL is N-(4-methyl-7-coumarinyl)-N-α(tert-butyloxy-carbonyl)-N-Ω-acetyllysineamide.
An initial assay was performed to determine the range of activity of each compound. […] All values are the result of two or more experiments.

Consider `CC(/C=C/C(=O)NO)=C\[C@@H](C)C(=O)c1ccc(N(C)C)cc1` [trichostatin], for which the IC50 in assay [1] turned out to be 0.005 µM.

Regarding `CCCC(=O)O` [butyric acid], the IC50 is 4500 µM in assay [2] and over 2000 µM in assay [1].

For the molecule `CCC(=O)OCOC(=O)CC` [POMP, propionoyloxymethyl propionate], the IC50 in assay [2] was 590 µM; in assay [1], 30 µM.
